Results reported in the supplement of paper PMC10307832.

How the values were obtained:
Test in all cases: relative viability (nuclei count vs DMSO), 5 days (fraction); higher = more cells survive
Tosedostat + OSI-027 = compound: CC(C)C[C@@H](C(=O)N[C@H](C(=O)OC1CCCC1)c1ccccc1)[C@H](O)C(=O)NO [Tosedostat] + COc1cccc2cc(-c3nc([C@H]4CC[C@H](C(=O)O)CC4)n4ncnc(N)c34)[nH]c12 [OSI-027] (partner 0.5 µM)
In short: (§1)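 Dosing by pin tool came one day after lung cancer cell lines were seeded in 1536-well plates, using either one drug or a fixed anchor-drug dose plus five library-drug doses (not always all listed) in √10 steps. After 5 days, nuclei were counted on 4× images. Relative viability is treated-well nuclei count divided by vehicle-well nuclei count, and values are medians of duplicate plates.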

[1] = compound: CC1=NN=C(O1)C2=NN=C(C=C2)N3CCC(CC3)OC4=C(C=CC(=C4)F)Cl + CCNC(=O)c1noc(-c2cc(C(C)C)c(O)cc2O)c1-c1ccc(CN2CCOCC2)cc1 [Luminespib] (partner 0.01 µM)
In short: as §1

[2] = compound: CC1=NN=C(O1)C2=NN=C(C=C2)N3CCC(CC3)OC4=C(C=CC(=C4)F)Cl + CS(=O)(=O)CCNCc1ccc(-c2ccc3ncnc(Nc4ccc(OCc5cccc(F)c5)c(Cl)c4)c3c2)o1 [Lapatinib] (partner 2 µM)
In short: as §1

[3] = compound: CC1=NN=C(O1)C2=NN=C(C=C2)N3CCC(CC3)OC4=C(C=CC(=C4)F)Cl + NC(=O)Nc1cc(-c2cccc(F)c2)sc1C(=O)N[C@H]1CCCNC1 [AZD7762] (partner 0.2 µM)
In short: as §1

Row | Cell Line | relative viability (Tosedostat + OSI-027; first compound 0.02 µM) | relative viability (Tosedostat + OSI-027; first compound 0.06325 µM) | relative viability (Tosedostat + OSI-027; first compound 0.2 µM) | relative viability (Tosedostat + OSI-027; first compound 0.6325 µM) | relative viability (Tosedostat + OSI-027; first compound 2 µM) | relative viability ([1]; first compound 0.253 µM) | relative viability ([1]; first compound 0.8 µM) | relative viability ([1]; first compound 2.53 µM) | relative viability ([1]; first compound 8 µM) | relative viability ([2]; first compound 0.253 µM) | relative viability ([2]; first compound 0.8 µM) | relative viability ([2]; first compound 2.53 µM) | relative viability ([2]; first compound 8 µM) | relative viability ([3]; first compound 0.253 µM) | relative viability ([3]; first compound 0.8 µM) | relative viability ([3]; first compound 2.53 µM) | relative viability ([3]; first compound 8 µM)
1 | LK-2 | 0.174 | 0.214 | 0.239 | 0.219 | 0.199 | 0.2 | 0.159 | 0.176 | 0.182 | 0.982 | 0.945 | 0.947 | 0.818 | 0.622 | 0.366 | 0.308 | 0.294
2 | LOU-NH91 | 0.735 | 0.822 | 0.703 | 0.676 | 0.616 | 0.317 | 0.318 | 0.307 | 0.315 |  | 0.7 | 0.717 | 0.687 |  | 0.715 | 0.816 | 0.717
3 | LU99A | 0.324 | 0.286 | 0.292 | 0.312 | 0.249 | 0.224 | 0.227 | 0.246 | 0.199 | 1.02 | 0.952 | 0.978 | 0.816 | 0.349 | 0.341 | 0.57 | 0.385
4 | LXF-289 | 0.904 | 0.799 | 0.808 | 0.692 | 0.561 | 0.477 | 0.378 | 0.547 | 0.395 | 0.643 | 0.672 | 0.696 | 0.584 | 0.898 | 0.757 | 1.12 | 0.967
5 | NCI-H23 | 0.702 | 0.599 | 0.683 | 0.494 | 0.372 | 0.222 | 0.199 | 0.229 | 0.189 | 1.03 |  | 0.955 | 0.876 | 0.191 | 0.192 | 0.288 | 0.206
6 | NCI-H322M | 0.606 | 0.571 | 0.567 | 0.556 | 0.509 | 0.815 | 0.796 | 0.726 | 0.648 | 0.467 | 0.581 | 0.592 | 0.551 | 0.51 | 0.563 | 0.581 | 0.543
7 | NCI-H358 | 0.925 | 0.745 | 0.362 | 0.349 | 0.329 | 0.287 | 0.176 | 0.177 | 0.207 | 0.545 | 0.447 | 0.55 | 0.451 | 0.559 | 0.521 | 0.614 | 0.544
8 | NCI-H460 | 0.817 | 0.604 | 0.595 | 0.647 | 0.679 | 0.0224 | 0.0328 | 0.0243 | 0.0233 | 0.313 | 0.326 | 0.283 | 0.276 | 0.215 | 0.189 | 0.26 | 0.23
9 | NCI-H596 | 0.826 | 0.924 | 0.909 | 0.564 | 0.629 | 0.938 | 0.849 | 0.945 | 0.889 |  | 0.845 | 0.932 | 0.888 | 0.975 | 0.853 | 0.97 | 0.946
10 | NCI-H647 | 0.541 | 0.667 | 0.515 | 0.4 | 0.585 | 0.171 | 0.128 | 0.16 | 0.263 | 0.673 | 0.667 | 0.824 | 0.58 | 0.462 | 0.294 | 0.472 | 0.248
11 | NCI-H650 | 0.611 | 0.5 | 0.454 | 0.455 | 0.364 | 0.77 | 0.685 | 0.703 | 0.793 | 0.999 | 0.833 | 0.839 | 0.851 | 0.943 | 0.642 | 0.985 | 0.882
12 | NCI-H727 | 0.583 | 0.636 |  | 0.492 | 0.419 | 0.531 |  | 0.6 | 0.629 | 0.815 | 0.721 | 1.01 | 0.795 | 0.823 | 0.597 | 0.623 | 0.555
13 | NCI-H838 | 0.383 | 0.413 | 0.445 | 0.503 | 0.404 | 0.257 | 0.255 | 0.348 | 0.226 | 0.86 | 0.645 | 0.842 | 0.78 | 0.74 | 0.778 | 0.918 | 0.787
14 | NCI-H1355 | 0.377 | 0.399 | 0.442 | 0.413 | 0.351 | 0.538 | 0.582 | 0.601 | 0.623 |  |  | 0.869 | 0.78 | 0.571 | 0.385 | 0.773 | 0.692
15 | NCI-H1395 | 0.59 | 0.618 | 0.644 | 0.672 | 0.621 | 0.431 | 0.725 | 0.678 | 0.82 | 0.849 | 0.782 | 1.02 | 0.873 | 0.377 | 0.378 | 0.392 | 0.404
16 | NCI-H2342 | 0.627 | 0.708 | 0.632 | 0.576 | 0.599 | 0.501 | 0.528 | 0.484 | 0.476 |  |  |  |  | 0.417 | 0.415 | 0.479 | 0.299
17 | SW 900 | 0.619 | 0.505 | 0.544 | 0.476 | 0.322 |  |  | 0.175 | 0.175 |  |  |  |  |  | 0.563 | 0.596 | 0.66
